Data set [1] deals with human APP751Sw transgenic H4 neuroglioma cell line (released Aβ peptides). The experiment in a line: Treatment of APP751Sw transgenic H4 neuroglioma cells with protease inhibitors, Aβ peptides released into supernatant. It is filed as cell-based. The note with it: for Aβ1-40, Aβ1-42, Aβ1-37/38/39 and Aβ2-42 released into cell culture supernatant: versus DMSO control. On the procedure:
FIG. 27: two Aβ SDS-PAGE/immunoblots 2 which show a treatment of a human 751APPSw trangenic H4 neuroglioma cell line with various protease inhibitors (23a) and a dose-dependent effect of calpain inhibitor 1 (23b). The released Aβ peptides were quantified in 4 μl of SDS/thermally denatured cell culture supernatants in each case (cf. FIGS. 23a,b). For comparison, the sAPPα concentration in the cell culture supernatants was determined.
In panel a: (1) is DMSO control; (2) is 50 μM calpain inhibitor 1; (3) is 100 μM calpain inhibitor 3; (4) is 5 μM MG132; (5) is 25 μM calpeptin; (a-d) is mix of synthetic Aβ peptides.
The released Aβ peptides were quantified in 4 μl of SDS/thermally denatured cell culture supernatants in each case. The dose-dependent effect of calpain inhibitor 1 on the Aβ peptide concentration in the supernatant was investigated, comparing with the DMSO control.
The released Aβ peptides were quantified in 4 μl of SDS/thermally denatured cell culture supernatants in each case. The dose-dependent effect of calpain inhibitor 1 on the proportion of an Aβ peptide species as a percentage of the total Aβ peptide concentration was investigated, comparing with the DMSO control.
If the samples are in liquid form (e.g. cell culture supernatants, cell homogenates) and if the Aβ peptide concentration is sufficiently high it is possible to take up one volume unit of sample with one volume unit of the double concentrated SDS-SB-2 (table 3).
A comparative investigation was carried out on the Aβ peptide pattern in neuroglioma cells (H4) which have been transfected with humanAPP751Sw. […] Aβ2-42 can also be indentified. After treatment with inhibitors of β/γ-secretases (calpain inhibitor I&II, calpeptin, MG132, leupeptin), besides Aβ1-40 and Aβ1-42 there is also a reduction in the C-terminally truncated Aβ peptides 1-37/38/39 and the N-terminally truncated Aβ2-42 (FIGS. 28a,b).

The nature of data set [2]: Aβ IPG 2D-PAGE of synthetic Aβ peptides (isoelectric point). It is filed as physicochemical. The note with it: IPG pH 4-7. The protocol: The samples are taken up in IPG-SB (table 5a). Dry substance and Dynabeads magnetically immobilized by means of MSP (see below) are taken up directly with the IPG-SB immediately before IEF and incubated in an ultrasonic bath at 37° C. for 10 min. Taking up of liquid biological samples: after removal of the mixed bed ion exchanger (Serdolit MB-1), the IPB-SB is divided into aliquots (e.g. 100 μl) in Eppendorf sample vessels and concentrated to the dry substance at room temperature using a SpeedVac. The IPG-SB introduced as dry substance is taken up with sample with the ratio 1:1 by volume (e.g. 100 μl) and, after a vortex step (1 min.), incubated in an ultrasonic bath at 37° C. for 10 min.
The IEF using commercial IPG “[…]” took place in accordance with the manufacturer's protocol (Amersham Pharmacia Biotech/brief instructions 71-5009-57, edition AA, 99-04). IPG “[…]” (4-7, linear pH gradient, length 7 cm) were rehydrogenated to a gel thickness of 0.5 mm using the rehydrogenation solution from table 5a at room temperature overnight. The sample loading device (“sample cups”) is placed on the basic side of the IPG strips, at about pH 6.5 (cathodic loading) and 30 μl of sample is loaded. The IPG-IEF takes place for 30 min/300V, 30 min/800V, 30 min./1400V and 5 h/2000V ([…]).
The IPG-IEF is followed by equilibration of the “[…]” for 2×10 min. (table 5b). The first equilibration solution contains DTT (50 mg/5 ml), the second solution iodoacetamide (240 mg/5 ml) for neutralization of excess DTT, which otherwise leads to color artefacts on silver staining of the gels. The second equilibration step is unnecessary for the Western immunoblot. The equilibrated IPG “[…]” are fixed on the stacking gel of the Aβ SDS-PAGE using agarose solution (table 5c). A sample well for loading synthetic Aβ peptides or Mr marker proteins for comparison is made in the hot agarose using a Teflon tooth. The electrophoresis takesplace in accordance with 3.1.2.

Data set [3] is described as follows: Cryoprecipitation of synthetic peptide dissolved in water. It is filed as physicochemical. Conditions: dissolved with comparable concentration in water, freezing. The source says: This makes it probable that the reduction caused by cryoprecipitation in Aβ1-42 in human CSF derives predominantly from the aggregate-bound proportion of the peptide. In the case of comparatively hydrophobic aggregates—for example lipoprotein-containing complexes—a loss through cryoprecipitation would not be surprising. In this connection, it is shown hereinafter (4.2.4) that ε4-positive patients in the NDC-3CP group show a particularly high rate of CP-related reduction in Aβ1-42 and have CSF levels which are approximately as low as ε4-positive AD-3CP patients.

Where a SMILES comes first, the peptide text is derived from it. [ ]: non-standard residue; d: D form. The star is where a group is joined. Nle = CCCC[C@H](N)C(=O)O; Cbz = O=C(OCc1ccccc1)*

In the case of `CC(C)C[C@@H](C=O)NC(=O)[C@H](CC(C)C)NC(=O)[C@H](CC(C)C)NC(=O)OCc1ccccc1` [MG132] (Cbz-Leu-Leu-Leu-aldehyde), the “Aβ1-40, Aβ1-42, Aβ1-37/38/39 and Aβ2-42 released into cell culture supernatant” value in data set [1] is reported as “reduction”.

As to `CCCC[C@@H](C=O)NC(=O)[C@H](CC(C)C)NC(=O)[C@H](CC(C)C)NC(C)=O` [calpain inhibitor 1] (Ac-Leu-Leu-[Nle]-aldehyde), in data set [1] (low inhibitor concentration), the “Aβ1-42 concentration at low concentration of the protease inhibitor” value is reported as “initial (paradoxical) increase” and the “Aβ2-42 concentration in relation to the increase in Aβ1-42” value was “did not correlate with an increase”. Further, in data set [1], the “Aβ1-40, Aβ1-42, Aβ1-37/38/39 and Aβ2-42 released into cell culture supernatant” value is “dose-dependent reduction”. Also, in data set [1] (listed as calpain inhibitor I), the “Aβ1-40, Aβ1-42, Aβ1-37/38/39 and Aβ2-42 released into cell culture supernatant” value is on record as “reduction”.

Take `CSCC[C@@H](C=O)NC(=O)[C@H](CC(C)C)NC(=O)[C@H](CC(C)C)NC(C)=O` [calpain inhibitor II] (Ac-Leu-Leu-Met-aldehyde): the “Aβ1-40, Aβ1-42, Aβ1-37/38/39 and Aβ2-42 released into cell culture supernatant” value in data set [1] is listed as “reduction”.

For `CCCC[C@@H](C=O)NC(=O)[C@H](CC(C)C)NC(=O)OCc1ccccc1` [calpeptin], in data set [1], the “Aβ1-40, Aβ1-42, Aβ1-37/38/39 and Aβ2-42 released into cell culture supernatant” value is recorded as “reduction”.

With `CC(=O)N[C@@H](CC(C)C)C(=O)N[C@@H](CC(C)C)C(=O)N[C@H](C=O)CCCNC(=N)N` [leupeptin], the “Aβ1-40, Aβ1-42, Aβ1-37/38/39 and Aβ2-42 released into cell culture supernatant” value in data set [1] is “reduction”.

Turning to “Aβ1-42: synthetic β-amyloid peptide 1-42 (Bachem)”, the isoelectric point in data set [2] was 5.37. In data set [3], the “cryoprecipitation compared with Aβ1-42 in human CSF” value is given as “distinctly less cryoprecipitation”.

Compound “Aβ2-40: synthetic β-amyloid peptide 2-40, lacking N-terminal aspartate” registered an isoelectric point in data set [2] of 6.37.

For the compound “Aβ3-40: synthetic β-amyloid peptide 3-40”, the isoelectric point in data set [2] is reported as 6.37.

(Values after US6849416B2, “Monoclonal antibody” (priority 2001, dated 2005).)
